In this test the test system is T1, Lcc120-3 (Mic-mg-MCO120-3).
T1 construct: 98 residues Micromonospora sp; MP36 MCO N-terminus (parent WP_148798198.1) + 387-residue metagenomic core + 54 residues MP36 MCO C-terminus; MBP deleted; E. coli BL21(DE3)
Kind of test: spectrophotometric oxidation at […] nm, Lineweaver-Burk plot. The class given is biochemical. The settings on record: 50 mM potassium phosphate pH 7.0, 30 °C, purified enzyme without MBP; read-out: Lcc120-3 (Mic-mg-MCO) / Km (mM)/Vmax (U/mg protein)/kcat (s^-1).

`COc1cccc(OC)c1O` [DMP, 2,6-dimethoxyphenol]: the Km worked out at 10.5 mM.
